Where “and” joins values, the source holds several entries; their conditions need not be identical. Equal values may be shown once. Entries after “also recorded” stand apart in the source; their conditions may differ.
Assays:
MDA-MB-231 cells [1] = assay: Thrombin-induced cell rounding; type: cell-based; settings: 24 h pretreatment, GGTI-DU40 5 μM, SN-DU40 and FTI 20 μM, thrombin 20 min
Experimental: For the experiments assessing thrombin effects on cell morphology, MDA-MB-231 cells were plated onto glass-bottom microwell dishes at 10-20% confluence and grown for 18-24 h in the presence of serum. Cells were then washed once with PBS and media replaced with serum-free media (DMEM) including indicated compounds and incubated an additional 24 h. Cells were then imaged, treated with thrombin (1 U/mL for 20 min), and imaged again.

GFP-H-Ras in MDCK cells = assay: Localization of GFP-H-Ras in MDCK cells; type: cell-based; settings: 20 μM, 24 h
Experimental: (§1) MDCK cells stably expressing GFP-H-Ras were a gift from Mark Philips (New York University School of Medicine). Ras-CVLL was cloned into pEGFP (Clontech) and used to transfect MDCK cells. Stable clones were then selected using […] Geneticin and expression confirmed by analysis of GFP expression as visualized by fluorescence microscopy. MDCK cells were always cultured as a monolayer in DMEM with 10% FBS. For drug treatment experiments, cells were plated onto glass-bottom microwell dishes (MatTek Corp, Ashland, Mass.) and experiments initiated approximately 24 h after cells reached confluence. All compounds tested were dissolved in DMSO and added to cells at a final DMSO concentration of 0.02%.
Assessment of receptor independent cell rounding was accomplished using adenovirus expressing the activated mutant of Gα12, Gα12QL (31). MDA-MB-231 cells were plated onto glass-bottom microwell dishes at 60% confluence and grown for 18-24 h in the presence of serum. […] Following an additional 12 h incubation, cells were imaged using brightfield and GFP fluorescence microscopy. Cell images were acquired using an Eclipse TE300 microscope (Nikon) using either an oil immersion lens at 600× (for fluorescence of MDCK cells) or a plan fluor lens at 200× (for MBA-321 cells) and a SPOT digital camera (Diagnostic Instruments, Sterling Heights, Mich.) employing SPOT RT 3.02 software.

[2] = system: GFP-Ras-CVLL in MDCK cells; assay: Localization of GFP-Ras-CVLL in MDCK cells; type: cell-based; settings: for localization of Ras-CVLL: 20 μM, 24 h
Experimental: as §1
(§2) Assessment of receptor independent cell rounding was accomplished using adenovirus expressing the activated mutant of Gα12, Gα12QL (31). MDA-MB-231 cells were plated onto glass-bottom microwell dishes at 60% confluence and grown for 18-24 h in the presence of serum. Cells were then washed once with PBS and media replaced with serum-free media (DMEM) including any indicated compounds and incubated 6 h before addition of recombinant adenovirus. Following an additional 12 h incubation, cells were imaged using brightfield and GFP fluorescence microscopy. Cell images were acquired using an Eclipse TE300 microscope (Nikon) using either an oil immersion lens at 600× (for fluorescence of MDCK cells) or a plan fluor lens at 200× (for MBA-321 cells) and a SPOT digital camera (Diagnostic Instruments, Sterling Heights, Mich.) employing SPOT RT 3.02 software.

[3] = system: Rap1 prenylation in MDA-MB-231 cells; assay: Unprenylated Rap1 analysis (immunoblot); type: cell-based; settings: 24 h
Experimental: To measure levels of unprenylated Rap1 in cells, whole cell lysates of MDA-MB-231 cells (prepared identically to Gβγ partitioning above, 75 ug) were mixed with Laemmli loading buffer and boiled. Samples were then separated by electrophoresis on denaturing 4-20% polyacrylamide gels and proteins transferred to nitrocellulose membranes for immunoblotting with antisera specific for the unprenylated form of Rap1 (Santa Cruz, sc-1482, goat). Sample loading was verified by reprobing blots with antisera for total Rap1 (Santa Cruz, sc-65, rabbit).

[4] = system: Rho association with RhoGDI in MDA-MB-231 cells; assay: RhoGDI-Rho interaction assay (GST-RhoGDI pull-down); type: cell-based; settings: 24 h, GGTI-DU40 5 μM, FTI 20 μM
Experimental: The interaction of GST-RhoGDI with endogenous Rho was assessed by protein interaction experiments. RhoGDI was generated as a glutathione-S-transferase fusion protein using a construct provided by Gary Bokoch (Scripps). The GST-RhoGDI fusion protein was incubated with treated MDA-MB-231 cell lysates (prepared identically to Gβγ partitioning above) for 1 hr at 4° C. in a total volume of 200 μl. Glutathione-sepharose was added and the mixture rotated at 4° C. for 30 min after which the affinity matrix was pelleted and washed three times with 500 μl of incubation buffer (70 mM HEPES, pH 7.5, 2 mM EDTA, 1 mM DTT, 150 mM NaCl, 0.1% Tween, 100 μM GDP, 2 mM MgCl2). Proteins retained on the matrix were solubilized in 2× Laemmli loading buffer and separated by electrophoresis on denaturing, 4-20% polyacrylamide gels. Proteins were transferred to nitrocellulose membranes for immunoblotting with an anti-RhoA antibody (Santa Cruz, sc-179).

MDA-MB-231 cells [5] = assay: Receptor independent cell rounding by Gα12QL expression; type: cell-based
Experimental: as §2

[6] = system: organ cultured anterior segments of porcine eyes; assay: Aqueous humor outflow facility in organ cultured, perfused anterior segments; settings: 10 μM or 25 μM, perfused for 24 to 96 hours, n=8, change from baseline facility
Experimental: (§3) Methods: A selective inhibitor of GGTase-I (GGTI-DU40) was tested in this study to investigate its effects on actin cytosketal integrity, cell adhesions, cell-cell junctions, myosin II phosphosphorylation, and membrane localization of Rho, Rap and G-beta/gamma in trabecular meshwork (TM) cells, using immunofluorescence detection and immunobloting analysis. The effects of GGTI-DU40 on aqueous humor outflow were determined using organ cultured, perfused anterior segments of porcine eyes.
GGTI-396586 was perfused in organ cultured anterior segments of enucleated porcine eyes at a constant flow at 37° C. Changes in aqueous humor outflow facility were determined. Values are expressed as percent change in outflow facility from baseline facility.

MDA-MB-231 cells [7] = assay: Thrombin-induced calcium mobilization (Fura-2); type: cell-based; settings: 5 μM, 24 h
Experimental: For the experiments assessing thrombin-induced calcium flux, MDA-MB-231 were plated on glass coverslips and treated similarly to that described for the thrombin rounding experiments. Calcium flux was measured 24 h after withdrawal of serum and addition of inhibitors using the calcium-sensitive dye Fura 2-AM (Molecular Probes Inc)(32). MDA-MB-231 cells were dye loaded for 1 h with 2.5 μM Fura-2 AM in Hanks balanced salt solution (HBSS, supplemented with 10 mM glucose and 0.1% BSA). After dye loading, the coverslips were placed in a temperature controlled recording chamber and superfused with Hanks solution. Cells were excited alternately at 340 and 380 nm and fluorescence emission at 510 nm was measured every four sec during the course of each experiment. After baseline recording for 2 min, thrombin (1 U/mL) was superfused into the bath chamber for 1 min (˜20 mL), followed by washout. Data is presented after baseline subtraction to show thrombin dependent calcium flux. Fluorescence measurements were acquired using a DeltaScan Illumination System (Photon Technology International (PTI), South Brunswick, N.J.) running on FELIX 1.4 software.

GGTase-I = biological target: T1, GGTase-I (Homo sapiens, UniProt P53609); assay: GGTase-I enzyme assay (3H-GGPP incorporation into Ras-CVLL); type: biochemical, mammalian
T1 construct: made in house; host or cells: Sf9 cells
Experimental: (§4) FTase and GGTase-I activities were determined by following incorporation of radiolabeled isoprenoid from ^3H-FPP and ^3H-GGPP into Ras proteins as described previously (28). Briefly, purified mammalian FTase or GGTase-I (50 ng, expressed in Sf9 cells) (29, 30) were used to initiate reactions containing 0.5 μM FPP or GGPP, respectively and 1 μM of the appropriate purified His-tagged Ras substrates (H-Ras for FTase; Ras-CVLL for GGTase-I). Where indicated in the appropriate Figure legend, inhibitors were added at the indicated concentrations. Final DMSO concentration was 2% for all samples. Reactions were carried out for 10 min at 30° C. before precipitation and product determination. Kinetic assays in which GGPP concentration was varied employed 5 ng GGTase-I, and reactions were carried out for five min to prevent GGTase-I concentration from exceeding GGPP concentration.
Graphing and curve fitting were performed using Prism (GraphPad, SanDiego Calif.). Substrate-velocity curves were fit to the Michaelis-Menten equation, while double-reciprocal plots were fit using linear regression. The Ki for GGTI-DU40 was calculated using nonlinear regression and shared parameter curve fitting for all inhibitor concentrations, the velocity equation used was v=Vmax[S]/(Km(1+([I]/Ki))+[S]).

[8] = biological target: T2, GGTase-II (Rab geranylgeranyltransferase) (Bos taurus, UniProt Q5E9B3); assay: GGTase-II activity assay (bovine brain cytosol, Rab5a substrate); type: biochemical; settings: concentration range tested
T2 construct: bovine brain cytosol (200 μg protein) as the enzyme source; from tissue; host or cells: bovine brain cytosol
T2 sequence (Q5E9B3 1-331): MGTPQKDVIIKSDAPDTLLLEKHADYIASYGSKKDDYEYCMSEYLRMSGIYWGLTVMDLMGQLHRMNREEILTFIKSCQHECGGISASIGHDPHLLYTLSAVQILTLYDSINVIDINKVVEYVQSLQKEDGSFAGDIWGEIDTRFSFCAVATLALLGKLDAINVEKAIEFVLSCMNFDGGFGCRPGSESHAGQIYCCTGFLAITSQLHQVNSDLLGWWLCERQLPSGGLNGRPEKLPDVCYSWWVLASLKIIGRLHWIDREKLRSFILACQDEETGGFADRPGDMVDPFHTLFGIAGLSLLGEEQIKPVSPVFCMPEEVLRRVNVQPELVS
Experimental: GGTase-II activity was measured used bovine brain cytosol (200 μg protein) as the enzyme source and purified GST-tagged Rab5a as the protein substrate. The pGEX-Rab5a construct was a gift from Adrienne Cox (University of North Carolina). The assay was performed identically to that described above for the CaaX prenyltransferases except for the enzyme source and protein substrate and that the reaction time was increased to for 30 min.

FTase = biological target: T3, FTase (Homo sapiens, UniProt P49356); assay: FTase enzyme assay (3H-FPP incorporation into H-Ras); type: biochemical, mammalian
T3 construct: made in house; host or cells: Sf9 cells
Experimental: as §4

[9] = system: myosin light chain (MLC) phosphorylation in porcine primary TM cells; assay: Myosin light chain phosphorylation in TM cells; type: cell-based; settings: 6 hours, 10% serum
Experimental: as §3
Porcine primary TM cells were treated with GGTI compounds for 6 hours in the presence of 10% serum and the cell lysates were analyzed for the changes in myosin light chain (MLC) phosphorylation using phosphospecific-anti-MLC antibody.

Gβγ in MDA-MB-231 cells = assay: Gβγ membrane partitioning; type: cell-based; settings: 24 h
Experimental: MDA-MB-231 cells were grown in 10 cm dishes and treated exactly as in the thrombin cell rounding assay. Following drug treatment in serum free media, cells were harvested and lysed using ice cold hypotonic lysis buffer (70 mM HEPES pH 7.4, 2 mM EDTA, 1 mM DTT, and protease inhibitors). Following sonication, the whole cell lysate (75 μg protein) was centrifuged at 100,000×g for 45 min. Both the supernatant (S100) and pellet (P100) fractions were processed on 4-20% SDS-polyacrylamide gels and proteins transferred to nitrocellulose membranes for immunoblot analysis.

[10] = system: Rho, Rap and G-beta/gamma in trabecular meshwork (TM) cells; assay: Membrane localization of Rho, Rap and G-beta/gamma in TM cells; type: cell-based, porcine; settings: drug-treated TM cells
Experimental: as §3

[11] = system: porcine TM primary cell cultures; assay: TM cell morphology, actin cytoskeleton and focal adhesions; type: cell-based; settings: 5 to 40 μM, 6 hours, 10% serum
Experimental: as §3
The porcine TM primary cell cultures were treated with GGTI compounds in the presence of 10% serum for 6 hours and recorded for the changes in cell morphology (phase contrast microscope), actin cytoskeletal organization (phalloidin staining) and focal adhesions (vinculin staining).

Icmt = biological target: T4, Icmt (Homo sapiens, UniProt O60725); assay: Icmt assay; type: biochemical; settings: concentration range tested
T4 construct: made in house; host or cells: Sf9 (membrane preparation)
T4 sequence (O60725 whole entry): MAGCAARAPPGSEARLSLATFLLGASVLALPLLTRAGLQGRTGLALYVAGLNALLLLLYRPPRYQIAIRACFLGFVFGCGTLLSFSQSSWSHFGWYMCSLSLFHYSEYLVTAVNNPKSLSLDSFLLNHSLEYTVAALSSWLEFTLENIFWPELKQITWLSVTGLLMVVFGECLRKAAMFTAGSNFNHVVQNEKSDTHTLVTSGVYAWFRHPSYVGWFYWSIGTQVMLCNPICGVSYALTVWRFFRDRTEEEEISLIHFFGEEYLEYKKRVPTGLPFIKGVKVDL
Experimental: Icmt assays were performed as described previously (27). Briefly, reactions were performed using biotin-S-famsyl-L-cysteine (4 μM) as a substrate and ^3H-AdoMet (5 μM, 7.5 Ci/mmol) as a methyl donor. Reactions were initiated by the addition of Sf9 membranes containing recombinant human Icmt (2 μg totoal protein) in the presence and absence of inhibitors. Reactions were carried out at room temperature for 20 min, and product formation determined.

SMILES: CC[C@H](C)[C@@H](CO[C@@H](Cc1ccccc1)C(=O)N[C@@H](CCS(C)(=O)=O)C(=O)OC(C)C)NC[C@@H](N)CS [L-744,832, reference compound]
- thrombin-stimulated cell rounding (MDA-MB-231 cells [1]): normal rounding
- localization of H-Ras (GFP-H-Ras in MDCK cells): almost complete mislocalization
- localization of Ras-CVLL [2]: no detectable mislocalization
- level of unmodified (unprenylated) Rap1 [3]: no effect
- ability of Rho proteins to associate with RhoGDI [4]: no effect

SMILES: CSCCc1c(-c2cccnc2)nn(-c2ccc(Cl)c(Cl)c2)c1OCCCC(=O)N[C@@H](Cc1ccccc1)C(N)=O [GGTI-DU40, N—[(S)-1-Carbamoyl-2-phenylethyl]-4-[2-(3,4-dichlorophenyl)-4-(2-methylsulfanylethyl)-5-pyridin-3-yl-2-H-pyrazol-3-yloxy]butyramide]
- rounding of cells elicited by expression of Gα12QL (MDA-MB-231 cells [5]): blocked
- thrombin-stimulated cell rounding (MDA-MB-231 cells [1]): dramatically inhibited
- localization of H-Ras (GFP-H-Ras in MDCK cells): without an effect
- increase in aqueous outflow facility [6]: 30%
- ability of thrombin to elicit calcium mobilization (MDA-MB-231 cells [7]): unaffected
- total calcium flux versus control (MDA-MB-231 cells [7]; integration of time with fluorescence): no statistical difference
- FTase/GGTase-I selectivity ratio (GGTase-I): > 250
- mode of inhibition with respect to the protein substrate (GGTase-I; GGPP fixed, Ras-CVLL varied, 2-20 nM inhibitor): competitive inhibitor
- mode of inhibition with respect to GGPP (GGTase-I; Ras-CVLL fixed, GGPP varied, 2-20 nM inhibitor): uncompetitive inhibitor
- time-dependent inhibition of GGTase-I (GGTase-I; data not shown): no such behavior was observed
- Ki (GGTase-I; protein substrate competition data, nonlinear regression, read-out: Ki for GGTase-I inhibition): < 1 nM and 0.78 nM and 0.8 nM
- IC50 (GGTase-I; purified GGTase-I): 8.24 nM
- activity against GGTase-II [8]: no detectable activity
- IC50 (FTase): > 2000 nM
- localization of Ras-CVLL [2]: complete mislocalization
- lowest inhibitor concentration at which Ras-CVLL mislocalization could be detected ([2]; data not shown): 2 µM
- myosin light chain phosphorylation [9]: decreased significantly; also recorded: significantly reduced
- membrane-associated Gβγ (Gβγ in MDA-MB-231 cells): partial loss
- membrane localization of Rho, Rap and G-beta/gamma [10]: impaired
- level of unmodified (unprenylated) Rap1 [3]: dose dependent increase
- actin stress fibers and focal adhesions [11]: reversible decreases
- changes in TM cell morphology [11]: dose dependent
- activity against Icmt methyltransferase (Icmt): no detectable activity
- ability of Rho proteins to associate with RhoGDI [4]: almost complete loss
